Source: US20240138411A1, “METHOD OF […] OF SUGARCANE” (CORTEVA AGRISCIENCE LLC, priority 2021, published 2024)
“Also recorded” adds a separate entry of the source.

Test system: sugarcane
Assay: Sugarcane flowering inhibition field trials, floral induction rated on UFSCar scale
Assay type: in vivo
Method: In order to explore the activity of florpyrauxifen as flowering inhibitor in sugarcane, field studies were carried out. Florpyrauxifen-benzyl was tested at rates from 2 to 20 grams active ingredient per hectare (g ai/ha) and compared to Ethrel® 720 (Bayer), the standard treatment. The flowering inhibition effect was assessed by checking the floral induction in sugarcane through the percentage scale recommended by UFSCar (Federal University of Sao Carlos, Sao Paulo, Brazil).
Four trials were carried out in sugarcane where florpyrauxifen-benzyl (Rinskor®), applied at a rate of 2 to 20 g ai/ha, was compared to ethephon (Ethrel® 720) applied at a rate of 475 g ai/ha. Control plots of untreated sugarcane were also evaluated. Rinskor® and Ethrel® 720 were diluted in water and a single application for each study (backpack sprayer) was performed delivering 50 L of spray solution per ha at the reproductive stage of sugarcane and at a maximum 150 days before harvest. The activity of florpyrauxifen-benzyl as a flowering inhibitor was measured via assessments (Scale of flowering inhibition—see chart 1) performed at 0, 14, 30, 45, 60, 75, 90, 120, 150 days after application, or up to harvest time. The assessments were measured in sugarcane stems, rating the flowering induction according to the UFSCar scale shown below. Significance of treatment effect was evaluated with F-approximate test (α=0.1) and least square means from different treatments were compared with Tukey's test.

COc1c(Cl)ccc(-c2nc(C(=O)OCc3ccccc3)c(Cl)c(N)c2F)c1F [Rinskor, florpyrauxifen-benzyl]
Frequency 1/1 (0%) (Table 3, 120 DAA, 10 g ai/ha): 72.5%
Frequency 2/1 (15%) (Table 3, 120 DAA, 10 g ai/ha): 27.5%
Frequency 3/1 (30%) (Table 3, 120 DAA, 10 g ai/ha): 0.0%
Frequency 4/1 (50%) (Table 3, 120 DAA, 10 g ai/ha): 0.0%
Frequency 4/2 (80%) (Table 3, 120 DAA, 10 g ai/ha): 0.0%
Frequency 4/3 (90%) (Table 3, 120 DAA, 10 g ai/ha): 0.0%
Frequency 4/4 (100%) (Table 3, 120 DAA, 10 g ai/ha): 0.0%
% Referring to Scale (Table 3, 120 DAA, 15 g ai/ha): 2.6%
Frequency 1/1 (0%) (Table 3, 120 DAA, 15 g ai/ha): 85.0%
Frequency 2/1 (15%) (Table 3, 120 DAA, 15 g ai/ha): 12.5%
Frequency 3/1 (30%) (Table 3, 120 DAA, 15 g ai/ha): 2.5%
Frequency 4/1 (50%) (Table 3, 120 DAA, 15 g ai/ha): 0.0%
Frequency 4/2 (80%) (Table 3, 120 DAA, 15 g ai/ha): 0.0%
Frequency 4/3 (90%) (Table 3, 120 DAA, 15 g ai/ha): 0.0%
Frequency 4/4 (100%) (Table 3, 120 DAA, 15 g ai/ha): 0.0%
% Referring to Scale (Table 3, 120 DAA, 20 g ai/ha): 3.0%
Frequency 1/1 (0%) (Table 3, 120 DAA, 20 g ai/ha): 80.0%
Frequency 2/1 (15%) (Table 3, 120 DAA, 20 g ai/ha): 20.0%
Frequency 3/1 (30%) (Table 3, 120 DAA, 20 g ai/ha): 0.0%
Frequency 4/1 (50%) (Table 3, 120 DAA, 20 g ai/ha): 0.0%
Frequency 4/2 (80%) (Table 3, 120 DAA, 20 g ai/ha): 0.0%
Frequency 4/3 (90%) (Table 3, 120 DAA, 20 g ai/ha): 0.0%
Frequency 4/4 (100%) (Table 3, 120 DAA, 20 g ai/ha): 0.0%
% Referring to Scale (Table 3, 150 DAA, 2 g ai/ha): 3.0%
Frequency 1/1 (0%) (Table 3, 150 DAA, 2 g ai/ha): 80.0%
Frequency 2/1 (15%) (Table 3, 150 DAA, 2 g ai/ha): 20.0%
Frequency 3/1 (30%) (Table 3, 150 DAA, 2 g ai/ha): 0.0%
Frequency 4/1 (50%) (Table 3, 150 DAA, 2 g ai/ha): 0.0%
Frequency 4/2 (80%) (Table 3, 150 DAA, 2 g ai/ha): 0.0%
Frequency 4/3 (90%) (Table 3, 150 DAA, 2 g ai/ha): 0.0%
Frequency 4/4 (100%) (Table 3, 150 DAA, 2 g ai/ha): 0.0%
% Referring to Scale (Table 3, 150 DAA, 5 g ai/ha): 1.9%
Frequency 1/1 (0%) (Table 3, 150 DAA, 5 g ai/ha): 87.5%
Frequency 2/1 (15%) (Table 3, 150 DAA, 5 g ai/ha): 12.5%
Frequency 3/1 (30%) (Table 3, 150 DAA, 5 g ai/ha): 0.0%
Frequency 4/1 (50%) (Table 3, 150 DAA, 5 g ai/ha): 0.0%
Frequency 4/2 (80%) (Table 3, 150 DAA, 5 g ai/ha): 0.0%
Frequency 4/3 (90%) (Table 3, 150 DAA, 5 g ai/ha): 0.0%
Frequency 4/4 (100%) (Table 3, 150 DAA, 5 g ai/ha): 0.0%
% Referring to Scale (Table 3, 150 DAA, 7 g ai/ha): 3.0%
Frequency 1/1 (0%) (Table 3, 150 DAA, 7 g ai/ha): 80.0%
Frequency 2/1 (15%) (Table 3, 150 DAA, 7 g ai/ha): 20.0%
Frequency 3/1 (30%) (Table 3, 150 DAA, 7 g ai/ha): 0.0%
Frequency 4/1 (50%) (Table 3, 150 DAA, 7 g ai/ha): 0.0%
Frequency 4/2 (80%) (Table 3, 150 DAA, 7 g ai/ha): 0.0%
Frequency 4/3 (90%) (Table 3, 150 DAA, 7 g ai/ha): 0.0%
Frequency 4/4 (100%) (Table 3, 150 DAA, 7 g ai/ha): 0.0%
% Referring to Scale (Table 3, 150 DAA, 10 g ai/ha): 0.8%
Frequency 1/1 (0%) (Table 3, 150 DAA, 10 g ai/ha): 95.0%
Frequency 2/1 (15%) (Table 3, 150 DAA, 10 g ai/ha): 5.0%
Frequency 3/1 (30%) (Table 3, 150 DAA, 10 g ai/ha): 0.0%
Frequency 4/1 (50%) (Table 3, 150 DAA, 10 g ai/ha): 0.0%
Frequency 4/2 (80%) (Table 3, 150 DAA, 10 g ai/ha): 0.0%
Frequency 4/3 (90%) (Table 3, 150 DAA, 10 g ai/ha): 0.0%
Frequency 4/4 (100%) (Table 3, 150 DAA, 10 g ai/ha): 0.0%
% Referring to Scale (Table 3, 150 DAA, 15 g ai/ha): 1.9%
Frequency 1/1 (0%) (Table 3, 150 DAA, 15 g ai/ha): 87.5%
Frequency 2/1 (15%) (Table 3, 150 DAA, 15 g ai/ha): 12.5%
Frequency 3/1 (30%) (Table 3, 150 DAA, 15 g ai/ha): 0.0%
Frequency 4/1 (50%) (Table 3, 150 DAA, 15 g ai/ha): 0.0%
Frequency 4/2 (80%) (Table 3, 150 DAA, 15 g ai/ha): 0.0%
Frequency 4/3 (90%) (Table 3, 150 DAA, 15 g ai/ha): 0.0%
Frequency 4/4 (100%) (Table 3, 150 DAA, 15 g ai/ha): 0.0%
% Referring to Scale (Table 3, 150 DAA, 20 g ai/ha): 0.0%
Frequency 1/1 (0%) (Table 3, 150 DAA, 20 g ai/ha): 100.0%
Frequency 2/1 (15%) (Table 3, 150 DAA, 20 g ai/ha): 0.0%
Frequency 3/1 (30%) (Table 3, 150 DAA, 20 g ai/ha): 0.0%
Frequency 4/1 (50%) (Table 3, 150 DAA, 20 g ai/ha): 0.0%
Frequency 4/2 (80%) (Table 3, 150 DAA, 20 g ai/ha): 0.0%
Frequency 4/3 (90%) (Table 3, 150 DAA, 20 g ai/ha): 0.0%
Frequency 4/4 (100%) (Table 3, 150 DAA, 20 g ai/ha): 0.0%
% Referring to Scale (Table 4, 90 DAA, 2 g ai/ha): 5.6%
Frequency 1/1 (0%) (Table 4, 90 DAA, 2 g ai/ha): 65.0%
Frequency 2/1 (15%) (Table 4, 90 DAA, 2 g ai/ha): 35.0%
Frequency 3/1 (30%) (Table 4, 90 DAA, 2 g ai/ha): 0.0%
Frequency 4/1 (50%) (Table 4, 90 DAA, 2 g ai/ha): 0.0%
Frequency 4/2 (80%) (Table 4, 90 DAA, 2 g ai/ha): 0.0%
Frequency 4/3 (90%) (Table 4, 90 DAA, 2 g ai/ha): 0.0%
Frequency 4/4 (100%) (Table 4, 90 DAA, 2 g ai/ha): 0.0%
% Referring to Scale (Table 4, 90 DAA, 4 g ai/ha): 1.1%
Frequency 1/1 (0%) (Table 4, 90 DAA, 4 g ai/ha): 87.5%
Frequency 2/1 (15%) (Table 4, 90 DAA, 4 g ai/ha): 12.5%
Frequency 3/1 (30%) (Table 4, 90 DAA, 4 g ai/ha): 0.0%
Frequency 4/1 (50%) (Table 4, 90 DAA, 4 g ai/ha): 0.0%
Frequency 4/2 (80%) (Table 4, 90 DAA, 4 g ai/ha): 0.0%
Frequency 4/3 (90%) (Table 4, 90 DAA, 4 g ai/ha): 0.0%
Frequency 4/4 (100%) (Table 4, 90 DAA, 4 g ai/ha): 0.0%
% Referring to Scale (Table 4, 90 DAA, 10 g ai/ha): 6.0%
Frequency 1/1 (0%) (Table 4, 90 DAA, 10 g ai/ha): 60.0%
Frequency 2/1 (15%) (Table 4, 90 DAA, 10 g ai/ha): 40.0%
Frequency 3/1 (30%) (Table 4, 90 DAA, 10 g ai/ha): 0.0%
Frequency 4/1 (50%) (Table 4, 90 DAA, 10 g ai/ha): 0.0%
Frequency 4/2 (80%) (Table 4, 90 DAA, 10 g ai/ha): 0.0%
Frequency 4/3 (90%) (Table 4, 90 DAA, 10 g ai/ha): 0.0%
Frequency 4/4 (100%) (Table 4, 90 DAA, 10 g ai/ha): 0.0%
% Referring to Scale (Table 4, 90 DAA, 15 g ai/ha): 2.6%
Frequency 1/1 (0%) (Table 4, 90 DAA, 15 g ai/ha): 82.5%
Frequency 2/1 (15%) (Table 4, 90 DAA, 15 g ai/ha): 17.5%
Frequency 3/1 (30%) (Table 4, 90 DAA, 15 g ai/ha): 0.0%
Frequency 4/1 (50%) (Table 4, 90 DAA, 15 g ai/ha): 0.0%
Frequency 4/2 (80%) (Table 4, 90 DAA, 15 g ai/ha): 0.0%
Frequency 4/3 (90%) (Table 4, 90 DAA, 15 g ai/ha): 0.0%
Frequency 4/4 (100%) (Table 4, 90 DAA, 15 g ai/ha): 0.0%
% Referring to Scale (Table 4, 90 DAA, 20 g ai/ha): 3.0%
Frequency 1/1 (0%) (Table 4, 90 DAA, 20 g ai/ha): 80.0%
Frequency 2/1 (15%) (Table 4, 90 DAA, 20 g ai/ha): 20.0%
Frequency 3/1 (30%) (Table 4, 90 DAA, 20 g ai/ha): 0.0%
Frequency 4/1 (50%) (Table 4, 90 DAA, 20 g ai/ha): 0.0%
Frequency 4/2 (80%) (Table 4, 90 DAA, 20 g ai/ha): 0.0%
Frequency 4/3 (90%) (Table 4, 90 DAA, 20 g ai/ha): 0.0%
Frequency 4/4 (100%) (Table 4, 90 DAA, 20 g ai/ha): 0.0%
flowering inhibition performance versus the standard (Ethrel 720) (Tables 1-4, 60 to 150 days after application): as well as or better than the standard treatment; also recorded: equivalent to or better than the standard
sugarcane flowering inhibition (field studies, rates from 2 to 20 g ai/ha): excellent sugarcane flowering inhibitor
